{"source": "patent US20240226332A9", "about": "“GENE THERAPY FOR TREM2-ASSOCIATED DISEASES AND DISORDERS” (Eli Lilly and Company, priority 2022, published 2024)", "key": {"iPSC-derived microglia": {"tested_on": "iPSC-derived microglia", "experiment": "Pharmacological CSF1R-inhibition (PLX3397) cell viability assay in human iPSC-derived microglia", "assay_type": "cell-based", "conditions": "150 nM or 200 nM PLX3397 in 0.1% DMSO, 8 hr, colorimetric viability kit", "protocol": "Methods: The iPSC-derived microglia as described in Example 4 either were treated with excipient (negative control) or were transduced with a rAAV vector having a TREM2 transgene (SEQ ID NO:26) encapsidated in AAV6TM capsid protein (SEQ ID NO:19) at a MOI of 2.0×10^3 vg/cell. 7 days post-transduction, 150 nM or 200 nM of PLX3397 in 0.1% DMSO was added to the cell culture media and incubated for additional 8 hr at 37° C. and 5% CO2. After this period of incubation, cells were assayed for viability using a colorimetric kit (Abcam)."}, "[1]": {"tested_on": "CSF1R-inhibition mouse model (WT C57BL/6 mice fed PLX-chow)", "experiment": "In vivo efficacy of TREM2 rAAV in CSF1R-inhibition (PLX) mouse model for CRL", "protocol": "The rAAV was injected at a dose of either 1.8×10^10 vg (4.49×10^10 vg/g brain) or 1.8×10^11 vg (4.49×10^11 vg/g brain), respectively. Vector particles per g brain weight was based on an adult mouse brain weight of 400 mg. At 8 weeks of age (i.e., 4 weeks post-ICV injection), 1 excipient-treated group and both dose-treated groups were fed with PLX-containing mouse chow. Mice were fed with PLX-chow at 185 mg/kg for 1 week and then sacrificed at 9 weeks of age (i.e., 5 weeks post-ICV injection).\nBiodistribution was determined by measuring vg presence using ddPCR (with >50 vg/1 μg gDNA defined as positive)."}}, "data": [{"smiles": "FC(F)(F)c1ccc(CNc2ccc(Cc3c[nH]c4ncc(Cl)cc34)cn2)cn1", "note": "[PLX]", "values": [{"measurement": "cell death (cytotoxicity of PLX treatment)", "setting": "iPSC-derived microglia", "result": "about 80%"}, {"measurement": "number of IBA1+ microglia in brain", "setting": "[1]; PLX-chow 185 mg/kg for 1 week, either dose of rAAV+PLX compared to excipient+PLX", "result": "almost complete depletion of microglia throughout the brain"}, {"measurement": "expression of homeostatic microglia genes (P2RY12, HEXB)", "setting": "[1]; PLX-chow 185 mg/kg for 1 week, rAAV+PLX", "result": "decreased expression of genes associated with homeostatic microglia"}, {"measurement": "CSF1R expression (mRNA; protein)", "setting": "[1]; PLX-chow 185 mg/kg for 1 week, rAAV+PLX (both doses) compared to excipient+PLX", "result": "apparent at both the mRNA and protein level"}, {"measurement": "expression of disease associated microglia (DAM) genes (CCL12, CD48, CD68, LYZ1, PTPRC)", "setting": "[1]; excipient+PLX, rAAV+PLX compared to excipient-only", "result": "significant decrease in expression"}]}]}
